Data: patent publication US12370202B2, “Methods and compositions for inhibiting the NLRP3 inflammasome and/or LON protease” (TRITERPENOID THERAPEUTICS, INC., priority 2019, dated 2025)

Experiments:
[1] = tested on: CCL2; assay: CCL2 expression in LPS-stimulated human macrophages, RT-qPCR; format: cell-based; conditions: 16 hours pretreatment, then 10 ng/ml LPS 24 hours
Procedure: FIG. 10 is a bar graph. CDDO-Me, CDDO-Im, CDDO-2P-Im, and CDDO-3P-Im inhibit expression of CCL2 in human macrophages at picomolar concentrations.
Human peripheral blood monocytes were isolated using CD14 magnetic beads and differentiated with 20 ng/ml M-CSF for with 5 days and pretreated or not with 300 nM CDDO-Me; 500 pM CDDO-Im; 500 pM CDDO-2p-Im; 500 pM CDDO-3p-Im for 16 hours, followed by stimulation with 10 ng/ml LPS for an additional 24 hours. Total RNA was extracted and analyzed by RT-qPCR (Tagman) for cytokine expression.

[2] = tested on: A2780; assay: Ovarian cancer cell growth (confluence), IncuCyte ZOOM; format: cell-based, human; conditions: cisplatin dose used in the combination
Excerpt: (§1) FIG. 11 is a set of line graphs. Cisplatin resistant human ovarian cancer cell lines A2780, CP70, OV81, CP10, OVCAR-5 and OVCAR-8 were exposed to CDDO-2P-Im, cisplatin, or a combination of CDDO-2P-Im and cisplatin.
(§2) CDDO-2P-Im suppresses growth of cisplatin-resistant human ovarian cancer cells in vitro. Cisplatin resistant human ovarian cancer cell lines A2780, CP70, OV81, CP10, OVCAR-5 and OVCAR-8 cell were each cultured in a complete medium consisting of RPMI1640, 20% heat-inactivated FBS, 1% penicillin/streptomycin. Cells were cultured in a water jacketed CO2 incubator at 37° C. in a humidified atmosphere consisting of 5% CO2 and 95% air. Continuous live-cell analysis (CLCA) was used as a non-invasive cell monitoring and measurement method based on time-lapse, phase-contrast microscopy and fluorescence imaging, using IncuCyte® ZOOM. Cells were seeded in 96-well plates at densities of either 1×10^4 or 3×10^4 cell/cm^2 followed by addition of a drug dilution series for either CDDO-2P-Im or Cisplatin (P4394, Sigma) dissolved in PBS and diluted in media. […] Reduction in confluence is accompanied by the detachment and death of ovarian cancer cells.

[3] = tested on: CP10; assay: as above; format: cell-based, human; conditions: cisplatin dose used in the combination
Excerpt: as §1, §2

[4] = tested on: OVCAR-5; assay: as above; format: cell-based, human; conditions: cisplatin dose used in the combination
Excerpt: as §1, §2

[5] = tested on: OV81; assay: as above; format: cell-based, human; conditions: cisplatin dose used in the combination
Excerpt: as §1, §2

[6] = tested on: CP70; assay: as above; format: cell-based, human; conditions: cisplatin dose used in the combination
Excerpt: as §1, §2

[7] = tested on: OVCAR-8; assay: as above; format: cell-based, human; conditions: cisplatin dose used in the combination
Excerpt: as §1, §2

[8] = tested on: Caspase 1; assay: Caspase 1 activation in LPS-primed BMDM, immunoblotting (caspase-p10); format: cell-based, mouse; conditions: different doses (30-1000 nM) 15 min before ATP (5 mM) 45 min
Procedure: FIG. 5 depicts a Western blot. CDDO-Im, CDDO-2P-Im, and CDDO-3P-Im inhibit Caspase 1 activation. LPS primed BMDM were treated with different doses of CDDO-Im, CDDO-2P-Im, or CDDO-3P-Im for 15 min before ATP (5 mM) was added for 45 min. Medium supernatant (SUP) and cell extracts (Lys) were analyzed by immunoblotting.
(§3) The effects of the pyridyl derivatives of CDDO-IM, (specifically, CDDO-2P-Im and CDDO-3P-Im) on NLRP3 inflammasome activation were tested in mouse BMDMs. Cells were first primed with LPS for 4 hours, then pretreated with specific doses of either CDDO-Im, CDDO-2P-IM or CDDO-3P-Im (30-1000 nM) for 15 min before ATP was added for another 45 min. CDDO-Im and its pyridyl derivatives inhibited the amount of caspase-p10 (an auto-processed fragment of caspase-1) released into cell culture supernatants in a dose-dependent manner as measured by Western blot (FIG. 5). […] The effect on caspase-1 activation is specific for the NLRP3 inflammasome as the AIM2 inflammasome activation by poly(dA:dT) was not inhibited by the synthetic CDDO-Im derivatives (data not shown).

[9] = tested on: NLRP3 inflammasome; assay: NLRP3 inflammasome activation in LPS-primed BMDM, IL-1β ELISA; format: cell-based, mouse; conditions: for IL-1β production by NLRP3 inflammasome activation: LPS primed BMDM, different doses (30-1000 nM) 15 min before ATP (5 mM) 45 min, ELISA
Procedure: FIG. 4A depicts an experimental design and FIG. 4B is a bar graph. Ixazomib (IXZ) potentiation of NLRP3 inflammasome activation inhibited by CDDO-2P-Im. Bone marrow derived macrophages (BMDM) were treated with Ixazomib (IXZ) and LPS (100 ng/ml) for 20 hours. Primed-BMDM were treated with CDDO-2P-Im (100 nM) for 15 min, followed by stimulation of ATP (5 mM) for 45 min. Supernatant were analyzed by ELISA for IL-1β release.
FIG. 6 is a set of bar graphs. CDDO-Im, CDDO-2P-Im (right panel), and CDDO-3P-Im (left panel) inhibit IL-1β production by NLRP3 inflammasome activation. LPS primed-BMDM were treated with different doses of CDDO-Im, CDDO-2P-Im, or CDDO-3P-Im for 15 min before ATP (5 mM) was added for 45 min. Supernatant were analyzed by ELISA for IL-1β.
To explore the potential that CDDO-2P-IM may enhance the MM response to proteasome inhibitors via inhibition of inflammasome activity, the effect of CDDO-2P-IM on activation of the NLRP3 complex (as defined by IL-1β production), in the presence or absence of IXZ in primary mouse bone marrow derived macrophages (BMDM) was evaluated. In the experiment, BMDM were primed by lipopolysaccharide (LPS) in the presence or absence of IXZ for 4 hours, followed by a brief ([…]) exposure to CDDO-2P-IM after which inflammasome activation was triggered by ATP.
as §3

[10] = tested on: NLRP3; assay: Mono-sodium urate (MSU)-induced peritonitis; format: in vivo, Mice; conditions: MSU crystals 1 mg/mouse i.p.; lavage four to sixteen hours later
Procedure: FIG. 7 is a bar graph. CDDO-Im, CDDO-2P-Im, and CDDO-3P-Im inhibit mono-sodium urate (MSU)-induced peritonitis. Peritoneal cavity IL-1β levels expressed as mean and SEM (n=6).
Mice received intraperitoneal (i.p.) injections of mono-sodium urate (MSU) crystals (1 mg/mouse) in the presence or absence of CDDO-Im, CDDO-2P-Im, or CDDO-3P-Im. Due to its particulate material, MSU crystals are potent activators of the NOD-like receptor NLRP3. Four to sixteen hours later a peritoneal lavage was conducted to collect supernatant from the peritoneal cavity.

[11] = tested on: 5T33MM cells; assay: MM cell proliferation (confluence), IncuCyte imaging; format: cell-based, murine; conditions: 50 nM TTX01 or 7.5 nM IXZ alone, 72 hours
Procedure: (§4) FIG. 2 is a bar graph. CDDO-2P-Im inhibits proliferation of multiple myeloma cell line in vitro. 5T33MM, RPMI8226, and ARH77 cells were seeded in 96-well plates and incubated with CDDO-2P-Im (50 nM-150 nM). Confluence (cell proliferation) was measured using IncuCyte imaging after 72 hours. *p<0.01 compared to control.
(§5) FIG. 3 is a bar graph. […] Shown here are results for 5T33MM (50 nM TTX01/7.5 nM IXZ); RPMI8226 (100 nM TTX01/7.5 nM IXZ); and ARH77 (150 nM TTX01/10 nM IXZ). Confluence (cell proliferation) was measured using IncuCyte imaging after 72 hours.
(§6) To examine tumor-intrinsic effects of CDDO-2P-IM in the 5T33MM cell line and in human MM cells, conducted a series of in vitro studies was conducted. For these experiments, 96-well plates were first coated in poly-L-ornithine before cells were seeded (in triplicate), including the murine 5T33MM and the human RPMI8226, and ARH77 cell lines (15,000 cells per well). Cells were incubated in IncuCyte™ Live-Cell Analysis System for 72 hours (images were taken every 4 hours). To define dose-dependent effect of CDDO-2P-IM, cells were exposed to concentrations ranging from 50 nM to 150 nM. To examine potential synergy of CDDO-2P-IM with IXZ, MM cells were exposed to IXZ (7 nM-10 nM) either alone or in combination with CDDO-2P-IM.

[12] = tested on: ARH77 cells; assay: as above; format: cell-based, human; conditions: 150 nM TTX01 or 10 nM IXZ alone, 72 hours
Procedure: as §4, §5, §6

[13] = tested on: RPMI8226 cells; assay: as above; format: cell-based, human; conditions: 100 nM TTX01 or 7.5 nM IXZ alone, 72 hours
Procedure: as §4, §5, §6

For COC(=O)[C@]12CCC(C)(C)C[C@H]1[C@H]1C(=O)C=C3[C@@]4(C)C=C(C#N)C(=O)C(C)(C)[C@@H]4CC[C@@]3(C)[C@]1(C)CC2 [CDDO-Me, reference compound], the “expression of CCL2” value ([1]; 300 nM) was “inhibit”.
With N.N.[Cl][Pt][Cl] [cisplatin, cis-diamminedichloroplatinum(II), reference compound] the “ovarian cancer cell kill, cisplatin alone” value (shortened to “ovarian cancer cell kill”) [2] was “absolutely no effect”, the “ovarian cancer cell kill” value [3] was “absolutely no effect” and the “ovarian cancer cell kill” value [4] was “absolutely no effect”. For the same molecule, the “ovarian cancer cell kill” value [5] was “absolutely no effect”, the “ovarian cancer cell kill” value [6] was “absolutely no effect” and the “ovarian cancer cell kill” value [7] was “absolutely no effect”.
CC1(C)CC[C@]2(C(=O)n3cnc(-c4cccnc4)c3)CC[C@]3(C)[C@H](C(=O)C=C4[C@@]5(C)C=C(C#N)C(=O)C(C)(C)[C@@H]5CC[C@]43C)[C@@H]2C1 [CDDO-3P-Im, 1-[2-Cyano-3,12-dioxooleana-1,9(11)-dien-28-oyl]-4(-pyridin-3-yl)-1H-imidazole] was tested, and the “Caspase 1 activation (caspase-p10 released into supernatant)” value [8] was “inhibit”, the “IL-1β production by NLRP3 inflammasome activation” value [9] was “inhibit” and the “expression of CCL2” value ([1]; 500 pM) was “inhibit”. The “MSU-induced peritonitis (peritoneal cavity IL-1β levels)” value [10] was “inhibit”.
CC1(C)CC[C@]2(C(=O)n3ccnc3)CC[C@]3(C)[C@H](C(=O)C=C4[C@@]5(C)C=C(C#N)C(=O)C(C)(C)[C@@H]5CC[C@]43C)[C@@H]2C1 [CDDO-Im, 1-(2-cyano-3,12-dioxooleana-1,9(11)-dien-28-oyl) imidazole, reference compound] was tested, and the “Caspase 1 activation (caspase-p10 released into supernatant)” value [8] was “inhibit”, the “IL-1β production by NLRP3 inflammasome activation” value [9] was “inhibit” and the “expression of CCL2” value ([1]; 500 pM) was “inhibit”. The “MSU-induced peritonitis (peritoneal cavity IL-1β levels)” value [10] was “inhibit”.
With CC(C)C[C@H](NC(=O)CNC(=O)c1cc(Cl)ccc1Cl)B(O)O [IXZ, reference compound] the “IL-1β release (NLRP3 inflammasome activation), effect of IXZ during LPS priming” value ([9]; BMDM, IXZ and LPS (100 ng/ml), ATP (5 mM) 45 min) was “potentiation”, the “proliferation (confluence), agent added alone” value (from here on “proliferation (confluence)”) [11] was “only partially effective” and the “proliferation (confluence)” value [12] was “only partially effective”. For the same molecule, the “proliferation (confluence)” value [13] was “only partially effective”.
